The subject of one test is spore suspension. The test can be described thus: Decimal reduction time of spores in inoculated glucocorticosteroids at 110° C. (Example 7). Conditions: for D110 value: Heating at 110° C., spore suspension different from Example 6. As to the method: 1 g of micronized budesonide, prednisolone and beclomethasone dipropionate and 0.5 g of rofleponide were inoculated with a different spore suspension to the one used in Example 6.
The samples were heat treated at 110° C. A sample was withdrawn after various heating times. The number of spores/g were determined by a pour plate technique according to US Pharmacopoeia 23/NF18, 1995, pp. 1681-1686, especially p. 1684.
From the number of spores before and after heat treatment the log reduction of spores and decimal reduction time (time needed at a specified temperature to reduce the number of microorganisms with one log) was calculated.

Test [1] has as its system Bacillus subtilis (globigii) spores. The test can be described thus: Heat sterilization at 110° C. of powder inoculated with spore suspension (Example 2). Conditions: for Spore population, After / Spore population, Before: 0.5 g sample; for Spore population, After: after 110° C. for 3 hours and 10 min; for Spore population, Before: before heat treatment; for Spore log reduction: 110° C. for 3 hours and 10 min. As to the method: Samples of 0.5 g of budesonide and of 0.5 g of calcium stearate were each inoculated with 0.1 ml of a Steris Bacillus subtilis (globigii) (Lot#LG126B) spore suspension containing 1.5×10^7 spores. Each sample was subjected to a temperature of 110° C. for 3 hours and 10 min in a Baxter Constant Temperature Oven using the same technique as in Example 1. The spore population of the samples was measured and the results obtained are shown below in Table 2.

A further test concerns A. niger. The test can be described thus: Heat resistance of microorganisms inoculated on budesonide powder (Example 3). As to the method:
(§1) Tests were performed to evaluate the heat resistance of various naturally occurring microorganisms.
(§2) Samples of 0.5 g of budesonide powder were each inoculated with approximately 10^2-10^3 viable ATCC microorganisms in 120 ml open-ended polypropylene container. Each sample was subjected to a temperature of 110° C. for 3 hours and 10 min. The microorganism population of the samples was measured before and after heat treatment and the results obtained are shown below in Table 3.

The next test deals with B. subtilis ATCC 6633. The description is as above. The settings on record: for Microorganism population, After: after 110° C. for 3 hours and 10 min; for Microorganism population, Before: before heat treatment. On the procedure:
as §1, §2

The test system of the next test is C. albicans. Described as above. As to the method: as §1, §2
In another test the test system is C. sporegenes. Described as above. As to the method:
as §1, §2

In a further test the test system is E. coli. The description is as above. On the procedure:
as §1, §2

In a further test the test system is M. luteus. Described as above. As to the method:
as §1, §2

The test system of another test is Ps. Aeruginosa. The test is described as above. On the procedure:
as §1, §2

In a further test the test system is S. epidermidis. Described as above. On the procedure:
as §1, §2

The test system of another test is Salmonella typhi. Described as above. On the procedure: as §1, §2
For the next test, the system named is Bacillus subtilis spores. The test can be described thus: Spore kill kinetics in inoculated micronized budesonide at 100, 110, 120° C., pour plate (Example 6). As to the method: 5 g of micronized budesonide was inoculated with approximately 2 ml of a spore suspension of Bacillus subtilis.
The substance and the spore suspension were mixed and dried for approximately 3 hours at 55° C. The inoculated and dried budesonide was mixed with 20-40 g of non-inoculated micronized budesonide.
5 g portions of this sample were heat treated at 100° C., 110° C. or 120° C. in a Heraeus ST 5060 heating apparatus. A 1 g sample was withdrawn after various heating times at the respective heating temperatures. Each such 1 g sample was transferred to 10 ml of dilution medium pH 7.2. Appropriate dilutions were made in 0.1% Peptone Aqueous solution and the number of spores/g were determined by a pour plate technique according to US Pharmacopoeia 23/NF18, 1995, pp. 1681-1686, especially p. 1684.
The number of spores before heat treatment were determined in samples heated at 80° C. for 10 min in order to kill the vegetative cells.
The results are shown in Table 6. where the DT value is the amount of time in minutes required to obtain a log 1 reduction in the number of spores before and after heat treatment at the temperature T (in ° C.).

The mark [2] stands for this setting: after 110° C. for 3 hours and 10 min.
Where [3] appears, read: B. subtilis ATCC 6633, low inoculum.
The mark [4] stands for this setting: 100° C. series, before heat treatment (80° C. 10 min).
Where [5] appears, read: 110° C. series, before heat treatment (80° C. 10 min).
[6] abbreviates: 120° C. series, before heat treatment (80° C. 10 min).

In the case of `CCC[C@@H]1O[C@@H]2C[C@H]3[C@@H]4C[C@H](F)C5=CC(=O)CC[C@]5(C)[C@@]4(F)[C@@H](O)C[C@]3(C)[C@]2(C(=O)CO)O1` [Rofleponide, rofleponide], in the test with spore suspension, the “D110 value” turned out to be 9.8 min. Moreover, the Spore kill result with spore suspension (full 1.0 g sample, cycle times ≧5 minutes at 110° C., D110 could not be calculated) is “total kill”.

In the case of calcium stearate, in test [1], the “Spore population, After” value was 3.3 × 10^6 spores; the “Spore population, Before” value was 1.5 × 10^7 spores; the Spore log reduction entry was “less than 0.7”.

For `C[C@]12C=CC(=O)C=C1CC[C@@H]1[C@@H]2[C@@H](O)C[C@@]2(C)[C@H]1CC[C@]2(O)C(=O)CO` [Prednisolone, prednisolone], the “D110 value” in the test on spore suspension is reported as 73.8 min.

As to `CCC(=O)OCC(=O)[C@@]1(OC(=O)CC)[C@@H](C)C[C@H]2[C@@H]3CCC4=CC(=O)C=C[C@]4(C)[C@@]3(Cl)[C@@H](O)C[C@@]21C` [Beclomethasone dipropionate, beclomethasone dipropionate], the “D110 value” in the test on spore suspension turned out to be 72.7 min.

On to `CCCC1O[C@@H]2C[C@H]3[C@@H]4CCC5=CC(=O)C=C[C@]5(C)[C@H]4[C@@H](O)C[C@]3(C)[C@]2(C(=O)CO)O1` (stereo partly shown) [Budesonide, budesonide], for which, in test [1], the “Spore population, After” value was below 10 spores. Besides, the “Spore population, Before” value in [1] is 1.5 × 10^7 spores. In test [1], the Spore log reduction entry was “greater than 6.2”. Moreover, the “Microorganism population, After” value is 0 in the test on A. niger (setting [2]); 1^1 with B. subtilis ATCC 6633 (B. subtilis ATCC 6633, high inoculum, singular bacillus species in 10^0 dilution plate); 0 in the test with B. subtilis ATCC 6633 (setting [3]); 0 in the test on C. albicans (setting [2]); 0 in the test on C. sporegenes (setting [2]); 0 in the test on E. coli (setting [2]). Also, the “Microorganism population, After” value in the test with M. luteus (setting [2]), in the test with Ps. Aeruginosa (setting [2]), in the test on S. epidermidis (setting [2]) and in the test on Salmonella typhi (setting [2]) was 0 throughout. Also, the “Microorganism population, Before” value in the test on A. niger (before heat treatment) was 260; in the test on B. subtilis ATCC 6633 (B. subtilis ATCC 6633, high inoculum), 1.2 × 10^5; with B. subtilis ATCC 6633 (setting [3]) it was 300; in the test with C. albicans (before heat treatment), 780; in the test on C. sporegenes (before heat treatment), 160; in the test on E. coli (before heat treatment), 450. Further, the “Microorganism population, Before” value amounted to 300 in the test on M. luteus (before heat treatment), 350 with Ps. Aeruginosa (before heat treatment), 240 with S. epidermidis (before heat treatment) and 270 in the test on Salmonella typhi (before heat treatment). The “D100 (time for log 1 reduction in number of spores)” value in the test on Bacillus subtilis spores (100° C.) was “D100 = 41.5 min; correlation coefficient = −0.0996 This means that it takes 6 × 41.5 minutes to obtain a log 6 reduction in the number of spores at a temperature of 100 °C”. The log spores/g with Bacillus subtilis spores (setting [4]) was determined as 6.81; in the test on Bacillus subtilis spores (100° C., 15 min) it was 3.68; in the test on Bacillus subtilis spores (100° C., 45 min) it was 2.85; in the test with Bacillus subtilis spores (100° C., 75 min) it was 2.23; with Bacillus subtilis spores (setting [5]), 6.20; with Bacillus subtilis spores (110° C., 5 min), 4.32. Besides, the log spores/g came out at 2.97 in the test with Bacillus subtilis spores (110° C., 15 min); 2.55 in the test with Bacillus subtilis spores (110° C., 20 min); 6.19 in the test with Bacillus subtilis spores (setting [6]); 2.28 with Bacillus subtilis spores (120° C., 4 min); 1.74 in the test with Bacillus subtilis spores (120° C., 6 min); 1.30 in the test on Bacillus subtilis spores (120° C., 8 min). In addition, the spores/g is recorded as 6.5 × 10^6 spores/g in the test on Bacillus subtilis spores (setting [4]); 4.8 × 10^3 spores/g in the test on Bacillus subtilis spores (100° C., 15 min); 7.1 × 10^2 spores/g in the test with Bacillus subtilis spores (100° C., 45 min); 1.7 × 10^2 spores/g with Bacillus subtilis spores (100° C., 75 min); 2 × 10^6 spores/g in the test on Bacillus subtilis spores (setting [5]); 2.08 × 10^4 spores/g with Bacillus subtilis spores (110° C., 5 min). Further, the spores/g is on record as 9.25 × 10^2 spores/g in the test on Bacillus subtilis spores (110° C., 15 min); 3.55 × 10^2 spores/g with Bacillus subtilis spores (110° C., 20 min); 1.5 × 10^6 spores/g in the test with Bacillus subtilis spores (setting [6]); 1.9 × 10^2 spores/g with Bacillus subtilis spores (120° C., 4 min); 5.5 × 10^1 spores/g in the test with Bacillus subtilis spores (120° C., 6 min); 2 × 10^1 spores/g with Bacillus subtilis spores (120° C., 8 min). Moreover, the “D110 (time for log 1 reduction in number of spores)” value in the test on Bacillus subtilis spores (110° C.) is “D110 = 8.3 min; correlation coefficient = −0.995 This means that it takes 6 × 8.3 minutes to obtain a log 6 reduction in the number of spores at a temperature of 110 °C”. In addition, the “D120 (time for log 1 reduction in number of spores)” value in the test on Bacillus subtilis spores (120° C.) was “D120 = 4.1 min; correlation coefficient = −0.998 This means that it takes 6 × 4.1 minutes to obtain a log reduction in the number of spores at a temperature of 120 °C”. The “D110 value” with spore suspension was found to be 41 min.

The values are drawn from US7524834B2, “Sterile powders, formulations, and methods for producing the same” (AstraZeneca AB, priority 1997, dated 2009).
